# Patent US11505782B2 (priority 2018, dated 2022)
# Values joined by “and” are separate entries in the source; they are usually repeats but may differ in a detail not shown here. Equal values may be shown once. Read-outs that look alike come from different tables or passages of the source.
# Experiments:
# JAK1/JAK2 = type: cell-based, human
# [1] = system: PC3 human prostate cancer cells; type: cell-based
# complement C3 [2] = target: T1, complement C3 (Homo sapiens, UniProt P01024); type: cell-based; conditions: 72 h
# T1 sequence (P01024 672-1663): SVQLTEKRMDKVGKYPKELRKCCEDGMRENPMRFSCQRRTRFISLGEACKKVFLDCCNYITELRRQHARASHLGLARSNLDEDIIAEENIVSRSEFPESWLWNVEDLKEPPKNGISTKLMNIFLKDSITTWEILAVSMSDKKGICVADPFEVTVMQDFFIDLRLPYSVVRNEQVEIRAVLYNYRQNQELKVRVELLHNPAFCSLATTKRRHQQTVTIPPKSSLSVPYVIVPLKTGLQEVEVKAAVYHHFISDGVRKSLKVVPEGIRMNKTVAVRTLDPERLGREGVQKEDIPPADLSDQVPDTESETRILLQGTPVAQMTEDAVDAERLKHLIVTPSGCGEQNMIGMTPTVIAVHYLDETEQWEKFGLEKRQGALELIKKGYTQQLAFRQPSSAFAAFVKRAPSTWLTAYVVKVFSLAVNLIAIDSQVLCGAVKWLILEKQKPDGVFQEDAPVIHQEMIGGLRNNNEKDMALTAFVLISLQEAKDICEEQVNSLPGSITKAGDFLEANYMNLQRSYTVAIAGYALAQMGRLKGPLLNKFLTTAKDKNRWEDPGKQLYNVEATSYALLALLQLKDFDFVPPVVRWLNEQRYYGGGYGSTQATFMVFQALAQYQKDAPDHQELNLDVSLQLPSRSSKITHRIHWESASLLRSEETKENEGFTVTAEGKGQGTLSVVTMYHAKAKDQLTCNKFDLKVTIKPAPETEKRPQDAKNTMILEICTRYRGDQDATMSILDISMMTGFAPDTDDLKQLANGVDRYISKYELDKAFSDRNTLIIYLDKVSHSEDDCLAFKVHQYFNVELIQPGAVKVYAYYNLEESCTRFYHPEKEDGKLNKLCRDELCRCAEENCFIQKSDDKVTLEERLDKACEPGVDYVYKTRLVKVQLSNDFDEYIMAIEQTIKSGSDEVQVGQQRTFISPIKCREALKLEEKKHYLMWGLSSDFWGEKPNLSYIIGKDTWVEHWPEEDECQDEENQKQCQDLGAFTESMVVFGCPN
# T1 sequence (P01024 23-667): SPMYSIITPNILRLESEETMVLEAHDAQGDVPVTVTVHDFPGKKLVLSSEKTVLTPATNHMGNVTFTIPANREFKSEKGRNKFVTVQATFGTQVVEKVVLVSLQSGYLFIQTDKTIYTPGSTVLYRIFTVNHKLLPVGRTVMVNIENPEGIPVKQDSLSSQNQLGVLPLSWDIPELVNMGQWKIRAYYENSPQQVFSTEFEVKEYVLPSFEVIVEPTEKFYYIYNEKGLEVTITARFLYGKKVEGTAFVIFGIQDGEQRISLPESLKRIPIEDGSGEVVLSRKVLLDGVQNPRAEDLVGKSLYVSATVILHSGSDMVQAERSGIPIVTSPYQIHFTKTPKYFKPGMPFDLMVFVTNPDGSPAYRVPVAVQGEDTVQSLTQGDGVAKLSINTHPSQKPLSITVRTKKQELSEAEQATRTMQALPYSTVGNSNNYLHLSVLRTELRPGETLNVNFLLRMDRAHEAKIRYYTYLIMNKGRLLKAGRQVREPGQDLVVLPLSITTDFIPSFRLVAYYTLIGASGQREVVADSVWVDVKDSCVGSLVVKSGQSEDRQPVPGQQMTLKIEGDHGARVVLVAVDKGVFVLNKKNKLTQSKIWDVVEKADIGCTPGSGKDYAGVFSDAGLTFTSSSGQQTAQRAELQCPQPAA
# [3] = system: PC3 human prostate cancer cells; type: cell-based; remark: listed apart in the source
# complement C3 [4] = target: T1, complement C3; type: cell-based; conditions: 48 h
SMILES,Average Fluorescence Intensity Density (JAK1/JAK2),Average Fluorescence Intensity Density [1],% Increase in Fluorescence (complement C3 [2]) [%],Average Fluorescence Intensity Density (complement C3 [2]),increase of fluorescent signal compared to control cells (complement C3 [2]) [%],increase of fluorescence intensity (partial reversal of complement-mediated suppression of virus spreading) [3] [%],Average Fluorescence Intensity Density ([3]; 48 h),Average Fluorescence Intensity Density (complement C3 [4]),increase of fluorescence intensity vs serum only control (complement C3 [4]) [%]
N#CC[C@H](C1CCCC1)n1cc(-c2ncnc3[nH]ccc23)cn1 [Ruxolitinib],0.074 and 0.0755 and 0.0735,3.8 and 6.0,,,,,,,
CC[C@H](C)[C@H](N)C(=O)N[C@H]1CSSC[C@@H](C(=O)N[C@H](C(N)=O)[C@@H](C)O)NC(=O)[C@H](CCCN=C(N)N)NC(=O)[C@H](Cc2cnc[nH]2)NC(=O)[C@H](Cc2cnc[nH]2)NC(=O)CNC(=O)[C@H](Cc2c[nH]c3ccccc23)NC(=O)[C@H](CC(=O)O)NC(=O)[C@H](CCC(N)=O)NC(=O)[C@H](C(C)C)NC(=O)[C@H](C(C)C)NC1=O [compstatin],,,50,0.09,50,28.5,36.4,0.0945 and 0.0670 and 0.0920,27.7
